We go through 62 compounds from patent publication US7101878B1 (Agouron Pharmaceuticals, Inc., priority 1998, dated 2006).

This test has as its target T1, mouse GnRH receptor (Mus musculus, UniProt Q01776).
T1 construct: expressed in transfected cells; host or cells: 293 cells
T1 sequence (Q01776 1-327): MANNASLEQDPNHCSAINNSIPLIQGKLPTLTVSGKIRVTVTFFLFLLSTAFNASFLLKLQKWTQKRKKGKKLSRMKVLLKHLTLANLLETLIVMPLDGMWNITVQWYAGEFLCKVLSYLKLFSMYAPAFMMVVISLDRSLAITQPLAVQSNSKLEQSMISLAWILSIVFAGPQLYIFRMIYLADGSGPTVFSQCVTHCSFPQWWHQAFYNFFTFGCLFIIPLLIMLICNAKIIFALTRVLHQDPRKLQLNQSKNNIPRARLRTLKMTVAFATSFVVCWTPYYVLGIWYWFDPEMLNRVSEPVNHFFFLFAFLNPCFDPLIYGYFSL
Nature of the test: Radioligand binding, 125I-GnRH-A, 293 cells expressing mouse GnRH receptors. The conditions noted are these: 10 uM; read-out: % Inhib. @ 10 uM mGnRH. An outline of the steps:
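Bound label captured on 0.1% polyethyleneimine-treated GF/C filters, washed three times with PBS, counted. IC50 derived; identical set-up for every species.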
In the case of `Cc1cc2c(cc1Cc1ccc(C(=O)N(CCCN(C)C)CCCN(C)C)o1)C(C)(C)CCC2(C)C` [drawing 1254], the inhibition at 10 µM was 71%.
On to `Cc1cc2c(cc1Cc1ccc(C(=O)N(CCN(C)C)Cc3ccccc3)o1)C(C)(C)CCC2(C)C` [drawing 1255], for which the inhibition at 10 µM was found to be 104%.
Turning to `Cc1cc2c(cc1Cc1ccc(C(=O)N3CCN(C(=O)c4ccco4)CC3)o1)C(C)(C)CCC2(C)C` [drawing 1264], the inhibition at 10 µM came to 89%.
Consider `Cc1cc2c(cc1Cc1ccc(C(=O)N3CCN(C4CCCCC4)CC3)o1)C(C)(C)CCC2(C)C` [drawing 1265], for which the inhibition at 10 µM worked out at 102%.
With `COCCCNC(=O)c1ccc(Cc2cc3c(cc2C)C(C)(C)CCC3(C)C)o1` [drawing 1268], the inhibition at 10 µM is 101%.
Turning to `Cc1cc2c(cc1Cc1ccc(C(=O)NCC(F)(F)F)o1)C(C)(C)CCC2(C)C` [drawing 1271], the inhibition at 10 µM stood at 26%.
On to `CCCNC(=O)c1ccc(Cc2cc3c(cc2C)C(C)(C)CCC3(C)C)o1` [drawing 1274], for which the inhibition at 10 µM stood at 93%.
On to `CCCCN(C(=O)c1ccc(Cc2cc3c(cc2C)C(C)(C)CCC3(C)C)o1)C(C)c1ccccc1` (centres unmarked) [drawing 1275], for which the inhibition at 10 µM amounted to 65%.
The result for `Cc1ccc(N2CCN(C(=O)c3ccc(Cc4cc5c(cc4C)C(C)(C)CCC5(C)C)o3)CC2C)cc1` (centres unmarked) [drawing 1276] reads 73%.
For the compound `Cc1cc2c(cc1Cc1ccc(C(=O)N(Cc3cccnc3)Cc3cccn3C)o1)C(C)(C)CCC2(C)C` [drawing 1285], the inhibition at 10 µM came out at 100%.
On to `Cc1cc2c(cc1Cc1ccc(C(=O)N(Cc3cccnc3)Cc3ccccc3F)o1)C(C)(C)CCC2(C)C` [drawing 1287], for which the inhibition at 10 µM came to 95%.
Take `CCOC(CN(CCc1ccccc1)C(=O)c1ccc(Cc2cc3c(cc2C)C(C)(C)CCC3(C)C)o1)OCC` [drawing 1296]: the inhibition at 10 µM came out at 66%.
The result for `CCCN(CCc1ccccn1)C(=O)c1ccc(Cc2cc3c(cc2C)C(C)(C)CCC3(C)C)o1` [drawing 1297] reads 100%; that for `COC(=O)C1CCCN1C(=O)c1ccc(Cc2cc3c(cc2C)C(C)(C)CCC3(C)C)o1` (centres unmarked) [drawing 1298], 97%.
With `Cc1cc2c(cc1Cc1ccc(C(=O)NCC3CCCCC3)o1)C(C)(C)CCC2(C)C` [drawing 1302] the figure was 72%.
For `COc1cccc(CN(Cc2cccc(Oc3cccc(C(F)(F)F)c3)c2)C(=O)c2ccc(Cc3cc4c(cc3C)C(C)(C)CCC4(C)C)o2)c1OC` [drawing 1307], the inhibition at 10 µM was 75%.
For `Cc1cc2c(cc1Cc1ccc(C(=O)N3CCC(CNC(=O)C(F)(F)F)CC3)o1)C(C)(C)CCC2(C)C` [drawing 1308], the inhibition at 10 µM was determined as 41%.
For `Cc1cc2c(cc1Cc1ccc(C(=O)N(CCC#N)Cc3ccco3)o1)C(C)(C)CCC2(C)C` [drawing 1309], the inhibition at 10 µM stood at 77%.
With `Cc1cc2c(cc1Cc1ccc(C(=O)N(Cc3cccnc3)CC3CC=CCC3)o1)C(C)(C)CCC2(C)C` (centres unmarked) [drawing 1318] the figure was 94%; with `Cc1cc2c(cc1Cc1ccc(C(=O)NC(CO)CC(C)C)o1)C(C)(C)CCC2(C)C` (centres unmarked) [drawing 1320], 98%.
The result for `Cc1cc2c(cc1Cc1ccc(C(=O)NCCc3ccc(Br)cc3)o1)C(C)(C)CCC2(C)C` [drawing 1371] reads 47%; that for `Cc1cc2c(cc1Cc1ccc(C(=O)NCc3ccccc3-c3ccccc3)o1)C(C)(C)CCC2(C)C` [drawing 1372], 74%.
As for `Cc1cc2c(cc1Cc1ccc(C(=O)NC3CCc4ccccc43)o1)C(C)(C)CCC2(C)C` (centres unmarked) [drawing 1375], the inhibition at 10 µM came to 57%.
The result for `COC(CCCNC(=O)c1ccc(Cc2cc3c(cc2C)C(C)(C)CCC3(C)C)o1)OC` [drawing 1383] reads 101%; that for `Cc1cc2c(cc1Cc1ccc(C(=O)NCCCO)o1)C(C)(C)CCC2(C)C` [drawing 1417], 96%.
The result for `Cc1cc2c(cc1Cc1ccc(C(=O)N(C)C3CCN(C)CC3)o1)C(C)(C)CCC2(C)C` [drawing 1420] reads 89%.
The result for `COc1ccccc1N1CCN(C(=O)c2ccc(Cc3cc4c(cc3C)C(C)(C)CCC4(C)C)o2)CC1` [drawing 1421] reads 73%; that for `Cc1cc2c(cc1Cc1ccc(C(=O)N3CCc4ccccc4C3)o1)C(C)(C)CCC2(C)C` [drawing 1422], 70%; that for `Cc1cc2c(cc1Cc1ccc(C(=O)N3CCC(O)(c4ccc(Cl)cc4)CC3)o1)C(C)(C)CCC2(C)C` [drawing 1423], 43%.
In the case of `CC(=O)N1CCN(C(=O)c2ccc(Cc3cc4c(cc3C)C(C)(C)CCC4(C)C)o2)CC1` [drawing 1424], the inhibition at 10 µM came to 71%.
The result for `Cc1cc2c(cc1Cc1ccc(C(=O)N3CCC(Cc4ccccc4)CC3)o1)C(C)(C)CCC2(C)C` [drawing 1425] reads 48%; that for `Cc1cc2c(cc1Cc1ccc(C(=O)N3CC(C)OC(C)C3)o1)C(C)(C)CCC2(C)C` (centres unmarked) [drawing 1426], 84%; that for `Cc1cc2c(cc1Cc1ccc(C(=O)N3CCC(CCCC4CCN(CCO)CC4)CC3)o1)C(C)(C)CCC2(C)C` [drawing 1427], 104%.
The result for `CCN(CC)CCN(C)C(=O)c1ccc(Cc2cc3c(cc2C)C(C)(C)CCC3(C)C)o1` [drawing 1428] reads 68%; that for `Cc1cc2c(cc1Cc1ccc(C(=O)N3CCN(CCO)CC3)o1)C(C)(C)CCC2(C)C` [drawing 1429], 69%.
With `Cc1cc2c(cc1Cc1ccc(C(=O)N3CC=CCC3)o1)C(C)(C)CCC2(C)C` [drawing 1430] the figure was 69%; with `Cc1cc2c(cc1Cc1ccc(C(=O)N3CCN(CC(=O)N4CCCC4)CC3)o1)C(C)(C)CCC2(C)C` [drawing 1432], 79%.
As for `Cc1cc2c(cc1Cc1ccc(C(=O)N3CCCCCCC3)o1)C(C)(C)CCC2(C)C` [drawing 1433], the inhibition at 10 µM was 88%.
With `COc1ccc(C(NC(=O)c2ccc(Cc3cc4c(cc3C)C(C)(C)CCC4(C)C)o2)C2CC2)cc1` (centres unmarked) [drawing 1435] the figure was 83%; with `Cc1cc2c(cc1Cc1ccc(C(=O)N3CCCCC3C(=O)NC(c3ccccc3)c3ccccc3)o1)C(C)(C)CCC2(C)C` (centres unmarked) [drawing 1436], 43%; with `Cc1cc2c(cc1Cc1ccc(C(=O)NCCCCCO)o1)C(C)(C)CCC2(C)C` [drawing 1437], 99%.
Consider `Cc1cc2c(cc1Cc1ccc(C(=O)NCC(C)(C)CO)o1)C(C)(C)CCC2(C)C` [drawing 1438], for which the inhibition at 10 µM turned out to be 84%.
The result for `C=CCN(CC=C)C(=O)c1ccc(Cc2cc3c(cc2C)C(C)(C)CCC3(C)C)o1` [drawing 1440] reads 83%; that for `CC(=O)N(C)C1CCN(C(=O)c2ccc(Cc3cc4c(cc3C)C(C)(C)CCC4(C)C)o2)C1` (centres unmarked) [drawing 1441], 74%; that for `Cc1cc2c(cc1Cc1ccc(C(=O)NCC(C)O)o1)C(C)(C)CCC2(C)C` (centres unmarked) [drawing 1443], 90%.
As to `Cc1cc2c(cc1Cc1ccc(C(=O)NC(C)(CO)CO)o1)C(C)(C)CCC2(C)C` [drawing 1444], the inhibition at 10 µM was 55%.
With `Cc1cc2c(cc1Cc1ccc(C(=O)NCC3(O)CCCCC3)o1)C(C)(C)CCC2(C)C` [drawing 1445] the figure was 65%; with `Cc1cc2c(cc1Cc1ccc(C(=O)N3CC(C)CC(C)C3)o1)C(C)(C)CCC2(C)C` (centres unmarked) [drawing 1446], 90%.
On to `Cc1cc2c(cc1Cc1ccc(C(=O)NC(C)CCCC(C)C)o1)C(C)(C)CCC2(C)C` (centres unmarked) [drawing 1447], for which the inhibition at 10 µM worked out at 72%.
As to `Cc1cc2c(cc1Cc1ccc(C(=O)NCCC3=CCCCC3)o1)C(C)(C)CCC2(C)C` [drawing 1448], the inhibition at 10 µM came to 84%.
`Cc1cc2c(cc1Cc1ccc(C(=O)NCCNc3cccc4ccccc34)o1)C(C)(C)CCC2(C)C` [drawing 1449]: the inhibition at 10 µM turned out to be 56%.
With `Cc1cc2c(cc1Cc1ccc(C(=O)NC(C)(C)C)o1)C(C)(C)CCC2(C)C` [drawing 1450] the figure was 72%.
Regarding `CCN(CCO)C(=O)c1ccc(Cc2cc3c(cc2C)C(C)(C)CCC3(C)C)o1` [drawing 1451], the inhibition at 10 µM was 81%.
For `Cc1cc2c(cc1Cc1ccc(C(=O)NCCc3ccccc3)o1)C(C)(C)CCC2(C)C` [drawing 1452], the inhibition at 10 µM was 73%.
Regarding `COCC(C)NC(=O)c1ccc(Cc2cc3c(cc2C)C(C)(C)CCC3(C)C)o1` (centres unmarked) [drawing 1454], the inhibition at 10 µM is 91%.
For `Cc1ccc(N2CCN(C(=O)c3ccc(Cc4cc5c(cc4C)C(C)(C)CCC5(C)C)o3)CC2)c(C)c1` [drawing 1455], the inhibition at 10 µM is 52%.
As to `Cc1cc2c(cc1Cc1ccc(C(=O)NC3CCC3)o1)C(C)(C)CCC2(C)C` [drawing 1456], the inhibition at 10 µM came out at 60%.
The result for `Cc1cc2c(cc1Cc1ccc(C(=O)N3CCC(N4CCCC4)CC3)o1)C(C)(C)CCC2(C)C` [drawing 1458] reads 96%.
For `Cc1cc2c(cc1Cc1ccc(C(=O)N(CCc3ccccn3)Cc3ccccc3)o1)C(C)(C)CCC2(C)C` [drawing 1459], the inhibition at 10 µM amounted to 76%.
The result for `Cc1cc2c(cc1Cc1ccc(C(=O)N(CCN3CCCCC3)Cc3ccccc3)o1)C(C)(C)CCC2(C)C` [drawing 1460] reads 104%; that for `Cc1cc2c(cc1Cc1ccc(C(=O)N(CCN3CCOCC3)Cc3ccccc3)o1)C(C)(C)CCC2(C)C` [drawing 1461], 91%; that for `Cc1cc2c(cc1Cc1ccc(C(=O)N(CCN3CCCC3)Cc3ccccc3)o1)C(C)(C)CCC2(C)C` [drawing 1462], 100%.
